{
  "source": "patent EP1263420B1",
  "about": "(priority 2000, dated 2001)",
  "type_in_all_cases": "in vivo",
  "key": {"TGase II": {"tested_on": "TGase II", "test": "TGase II assay of rat liver tissue after inhaled 13-cis RA (experiment B)", "conditions": "for TGase II assay / TGase II assay DPM/µg protein: rat liver", "experimental": "(§1) Male rats (n=23) (Sprague-Dawley from Charles River) were divided into six experimental groups and were given varying amounts of 13-cis RA through an inhalant apparatus once daily for different times each day for 14 days. The experimental groups were as follows (Table 1) :1.Vehicle control : rats (3) inhaled vehicle for 240 minutes; 2. Low dose 13-cis RA: rats (4) inhaled a solution containing 13-cis RA at a concentration of 62.2µg/liter (inhaled dose 115.0µg/kg body weight) in 5 minutes; 3. Low-Middle dose 13-cis RA : rats (4) inhaled a solution containing 13-cis RA at a concentration of 62.2µg/liter (inhaled dose 334.4µg/kg body weight) in 15 minutes; 4.Middle dose 13-cis RA: rats (4) inhaled a solution containing 13-cis RA at a concentration of 62.2µg/liter (inhaled dose 1012.3µg/kg body weight) in 45 minutes; 5. Middle-High dose 13-cis RA : rats (4) inhaled a solution containing 13-cis RA at a concentration of 62.2µg/liter (inhaled dose 2843.4µg/kg body weight) in 120 minutes; 6. High dose 13-cis RA : rats (4) inhaled a solution containing 13-cis RA at a concentration of 62.2µg/liter (inhaled dose 5935.6µg/kg body weight) in 240 minutes.\nFor liver tissue, a piece of approximately 100-400mg was used. Tissue was diced in small pieces and homogenized in approximately 2 volumes of scraping buffer for 2-3 minutes at 4°C. Samples were centrifuged at 14,000xg for 30 minutes at 4°C. The supernatant was removed and kept in ice until used.\nEnzyme assay mixtures were prepared by adding 80µl of SUBSTRATE mixture (322.8µl H2O, 120µl 0.5M NaBorate, 60µl 0.01M EDTA, 60µl 0.1M CaCl2, 6µl 1M DTT, 240µl dimethyl casein, 30µl Triton X-100, 1.2µl [^3H]-Putrescine, 120µl Putrescine) to 20µl sample, 20µl scraping buffer for blank control , 20 µl (18µl scraping buffer + 2µl TGase II) for positive control. Samples were mixed in 15ml tubes, the tubes were shaken before putting them into a 28°C water bath for 30 minutes. Reactions were slowed down in an ice bath. 80µl of the incubation mixture was adsorbed onto paper disks. These were immediately dropped into cold 10% TCA (0.1% Putrescine) and washed with agitation for 7 minutes, followed by 2 additional washes with 5% TCA (0.05% putrescine) for 5~7 minutes, and once more with cold (-20°C) 95% ethanol for 5 minutes. Paper disks were dried and placed into 5ml Aquasol, and counted in a Liquid Scintillation Counter. Protein concentration determination was conducted by the Bradford method."}, "RAR α": {"tested_on": "RAR α", "test": "Western blot of rat lung tissue after inhaled 13-cis RA", "conditions": "for upregulating expression of lung tissue RAR (α): daily deposited dose of 6.4mg/kg/day", "experimental": "(§2) Rats (n=97) (Sprague-Dawley from Charles River) were divided into five experimental groups and were given varying amounts of 13-cis RA by inhalation. The experimental groups were as follows (Table 4) :1.Vehicle (10/9 mix of PEG 300 and Ethanol with 0.5% of ascorbic acid and 0.5% phosphatidyl choline) control, day 1: rats (19) inhaled vehicle for 2 hr for one day; 2. High dose 13-cis RA, day 1: rats (22) inhaled a solution containing 13-cis-RA at a concentration of 104µg/liter (projected daily inhaled dose 10mg/kg body weight) for 2 hr for one day; 3. High dose 13-cis RA, day 17: rats (22) inhaled the same solution as in 2 for 2 hr each day for 17 days; 4. Vehicle control, day 28: rats (16) inhaled vehicle as for group 1 for a period of 28 days; 5. Middle dose 13-cis RA, day 28: rats (18) inhaled a solution containing 13-cis-RA at a concentration of 31µg/liter (projected daily inhaled dose 3mg/kg body weight) for 2 hr for each of 28 days.\nas §1\n(§3) Polyclonal rabbit anti-mouse antibodies against RAR, and (SANTA CRUZ Biotechnology Inc., San Francisco, CA) were used. BM Chemiluminescense Western Blotting Kit (Mouse/Rabbit) was used (Boehringer Mannheim Corporation, Indianapolis) for the Westerns.\n(§4) Tissues were collected, frozen in dry ice and kept at -70°C until used. 500mg aliquots were diced in small pieces and homogenized in 300µl of cold PBS, using the hand held homogenizer for 2~3 minutes. Sample and washes were centrifuged at 5000xg for 20 minutes. The pellet was suspended in 400 µl of ice-cold Buffer A [2µl 0.5M EDTA, 10µl 100mM EGTA, 50µl 100mM PMSF, 10µl 1M DTT, 10ml (10mM HEPES pH 7.9 + 10mM KCl)], and left at ice temperature for 15 minutes. 25 µl of 10% solution of NP-40 was added and samples were mixed in a vortex vigorously for 10 seconds. Samples were centrifuged at 14,000xg for 1 minute at 4°C and the pellet treated once more in this fashion (resuspended etc.). The supernatant was removed and 100µl of ice-cold Buffer C [4µl 0.5M EDTA, 20µl 100mM EGTA, 20µl 100mM PMSF, 2µl 1 M DTT, 2ml (20mM HEPES pH 7.9 + 0.4M NaCl)] was added. Pellets were resuspended by tapping gently on the bottom of the Eppendorf tubes. Samples were rocked vigorously in a bucket of ice on an orbital shaker for 30 minutes. Samples were centrifuged at 14,000 xg for 5 minutes at 4°C. Protein determination of supernatant was conducted by the Bradford method.\n(§5) Samples were prepared by adding one part of the Sample Buffer to one part of the sample and mixing well. Samples were heated at 95°C for 5 minutes to induce denaturation. 5µl of Rainbow Standard and 5µl ofBiotinylated Molecular Marker were added to parallel wells. 20µg protein per sample was loaded in each lane. Electrophoresis was performed with voltage set at 125V for about 1 ~ 1.5 hours. Gel transfer was executed at 25V for 2 hours. […]"}, "RAR β": {"tested_on": "RAR β", "test": "Western blot of rat lung tissue after inhaled 13-cis RA", "conditions": "for upregulating expression of lung tissue RAR (β): daily deposited dose of 6.4mg/kg/day", "experimental": "as §2, §1, §3, §4, §5"}, "RAR γ": {"tested_on": "RAR γ", "test": "Western blot of rat lung tissue after inhaled 13-cis RA", "conditions": "for upregulating expression of lung tissue RAR (γ): daily deposited dose of 6.4mg/kg/day", "experimental": "as §2, §1, §3, §4, §5"}, "liver RARs": {"tested_on": "liver RARs", "test": "Western blot of rat liver samples after inhaled 13-cis RA", "experimental": "as §2\nas §1, with “minutes. […]” for “minutes.”"}, "[1]": {"test": "Body weight, mortality and toxicity of A/J mice exposed to isotretinoin aerosols"}, "[2]": {"conditions": "High: 240 minutes daily 14 Days, 1872µg/kg total deposited dose"}, "[3]": {"conditions": "Low-Middle: 15 minutes daily 14 Days, 117µg/kg total deposited dose"}, "[4]": {"conditions": "Middle-High: 120 minutes daily 14 Days, 936µg/kg total deposited dose"}, "[5]": {"conditions": "Middle: 45 minutes daily 14 Days, 351µg/kg total deposited dose"}, "[6]": {"conditions": "daily deposited dose of 1.9mg/kg/day, day 28"}},
  "note": "“And” between values parts separate entries of the source, which are not always exact repeats. Equal values may be shown once. “Also recorded” adds a separate entry of the source.",
  "data": [
    {"molecule": "CC1=C(/C=C/C(C)=C/C=C/C(C)=C\\C(=O)O)C(C)(C)CCC1", "note": "[13-cis RA, 13-cis-Retinoic Acid]", "values": [
      {"measurement": "effect on liver TGase II activity", "setting": "TGase II; inhaled, up to 5.93mg/kg of inhaled dose", "value": "no significant effect"},
      {"measurement": "TGase II assay", "setting": "TGase II; [2]", "value": "0.271 +/- 0.015 picomoles/µg protein/30 min and 0.271 ± 0.015 picomoles/µg protein/30 min"},
      {"measurement": "TGase II assay DPM/µg protein", "setting": "TGase II; [2]", "value": 19719, "unit": "DPM/µg protein"},
      {"measurement": "TGase II assay", "setting": "TGase II; [3]", "value": "0.273 +/- 0.018 picomoles/µg protein/30 min and 0.273 ± 0.018 picomoles/µg protein/30 min"},
      {"measurement": "TGase II assay DPM/µg protein", "setting": "TGase II; [3]", "value": 21448, "unit": "DPM/µg protein"},
      {"measurement": "TGase II assay DPM/µg protein", "setting": "TGase II; Low: 5 minutes daily 14 Days, 39µg/kg total deposited dose", "value": 22705, "unit": "DPM/µg protein"},
      {"measurement": "TGase II assay", "setting": "TGase II; Low: 5 minutes daily 14 Days, 39µg/kg total deposited dose, vehicle 0.260", "value": "0.289 +/- 0.007 picomoles/µg protein/30 min and 0.289 ± 0.007 picomoles/µg protein/30 min"},
      {"measurement": "TGase II assay", "setting": "TGase II; [4]", "value": "0.269 +/- 0.015 picomoles/µg protein/30 min and 0.269 ± 0.015 picomoles/µg protein/30 min"},
      {"measurement": "TGase II assay DPM/µg protein", "setting": "TGase II; [4]", "value": 20348, "unit": "DPM/µg protein"},
      {"measurement": "TGase II assay", "setting": "TGase II; [5]", "value": "0.313 +/- 0.025 picomoles/µg protein/30 min and 0.313 ± 0.025 picomoles/µg protein/30 min"},
      {"measurement": "TGase II assay DPM/µg protein", "setting": "TGase II; [5]", "value": 24590, "unit": "DPM/µg protein"},
      {"measurement": "lung RAR (α) induced", "setting": "RAR α; [6]", "value": 4.7, "unit": "fold"},
      {"measurement": "upregulating expression of lung tissue RAR (α)", "setting": "RAR α; day 1", "value": 3.4, "unit": "fold"},
      {"measurement": "upregulating expression of lung tissue RAR (α)", "setting": "RAR α; day 17", "value": 4.2, "unit": "fold"},
      {"measurement": "lung RAR (β) induced", "setting": "RAR β; [6]", "value": 8.0, "unit": "fold"},
      {"measurement": "upregulating expression of lung tissue RAR (β)", "setting": "RAR β; day 1", "value": 7.2, "unit": "fold"},
      {"measurement": "upregulating expression of lung tissue RAR (β)", "setting": "RAR β; day 17", "value": 10.0, "unit": "fold"},
      {"measurement": "lung RAR (γ) induced", "setting": "RAR γ; [6]", "value": 8.1, "unit": "fold"},
      {"measurement": "upregulating expression of lung tissue RAR (γ)", "setting": "RAR γ; day 1", "value": 9.7, "unit": "fold"},
      {"measurement": "upregulating expression of lung tissue RAR (γ)", "setting": "RAR γ; day 17", "value": 12.9, "unit": "fold"},
      {"measurement": "effect on liver RARs", "setting": "liver RARs; inhaled 13-cis RA, rats, summary statement", "value": "failed to have any significant effect on liver RARs; also recorded: has no effect on liver RARs"},
      {"measurement": "increase in liver RARs", "setting": "liver RARs; rat liver, experiment A (same rats as Fig 2A), not shown", "value": "failed to show any increase in RARs"},
      {"measurement": "response of liver RARs", "setting": "liver RARs; rat liver, experiment B, 5 to 240 minutes daily, 14 days, not shown", "value": "not responsive"},
      {"measurement": "tolerated until (mice began losing weight)", "setting": "[1]; mid dose", "value": "~ 12 wks"},
      {"measurement": "weights below those of vehicle controls", "setting": "[1]; mid dose, NNK- and BaP-treated mice, end of exposure", "value": 11, "unit": "%"},
      {"measurement": "mortality", "setting": "[1]; mouse, in vivo, inhaled or intranasal, 0.081 mg/kg, mid dose (2/63), read-out: mice died before the end of exposure", "value": 3, "unit": "%"},
      {"measurement": "mortality at 336 h", "setting": "[1]; mouse, in vivo, inhaled or intranasal, 2 mg/kg, high dose, daily exposures for the first two weeks, read-out: mice died", "value": "~35", "unit": "%"}
    ]}
  ]
}
